{
  "source": "patent US20230295197A1",
  "about": "“STAT5 and STAT6 Degraders and Uses Thereof” (REGENTS OF THE UNIVERSITY OF MICHICAN, priority 2022, published 2023)",
  "target": "T1, STAT6 (Homo sapiens, UniProt P42226)",
  "T1 construct": "endogenous in cells; host or cells: MOLM-16, KU-812, SKNO1, MB231, L1236",
  "T1 sequence (P42226 1-847)": "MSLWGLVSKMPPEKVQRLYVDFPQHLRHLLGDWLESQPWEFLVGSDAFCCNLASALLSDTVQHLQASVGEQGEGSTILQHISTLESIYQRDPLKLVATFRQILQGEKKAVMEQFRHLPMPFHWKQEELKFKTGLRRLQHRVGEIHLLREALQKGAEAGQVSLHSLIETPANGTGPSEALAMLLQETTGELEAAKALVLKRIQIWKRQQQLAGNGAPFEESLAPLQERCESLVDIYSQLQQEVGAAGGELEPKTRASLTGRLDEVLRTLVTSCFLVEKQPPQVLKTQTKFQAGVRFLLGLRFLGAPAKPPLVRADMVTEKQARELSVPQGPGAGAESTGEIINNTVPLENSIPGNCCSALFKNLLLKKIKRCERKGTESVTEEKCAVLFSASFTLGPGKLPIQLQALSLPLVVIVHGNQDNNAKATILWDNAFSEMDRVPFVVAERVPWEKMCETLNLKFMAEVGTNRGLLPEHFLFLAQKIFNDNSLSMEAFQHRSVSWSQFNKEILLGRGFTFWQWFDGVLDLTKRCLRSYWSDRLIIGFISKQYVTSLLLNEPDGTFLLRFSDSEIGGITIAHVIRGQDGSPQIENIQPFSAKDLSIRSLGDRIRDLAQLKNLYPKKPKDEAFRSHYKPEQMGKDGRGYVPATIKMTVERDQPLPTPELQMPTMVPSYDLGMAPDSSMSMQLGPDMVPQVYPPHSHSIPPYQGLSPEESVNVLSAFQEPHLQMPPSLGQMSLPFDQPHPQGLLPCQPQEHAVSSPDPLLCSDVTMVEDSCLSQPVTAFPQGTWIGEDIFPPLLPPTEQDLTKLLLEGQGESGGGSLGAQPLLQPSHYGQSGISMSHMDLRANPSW",
  "test": "Immunoblotting (Western blot) analysis of STAT6 degradation efficiency of degraders in treated cells",
  "format": "cell-based",
  "how_it_was_run": "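Degradation read by quantitative near-infrared Western blot: equal protein loads (20-40 μg) from compound-treated versus untreated cells, probed overnight at 4° C. for STAT5 or STAT6 with GAPDH reference. Compound concentrations and exposure times as indicated; cells grown in medium with 10% FBS at 37° C.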",
  "key": {"[1]": {"conditions": "MOLM-16 cells, class symbols, read-out: DC50 S6 MOLM-16"}},
  "note": "Read-outs that look alike come from different tables or passages of the source. *1 amine or outer side, *2 acyl side, *3 side chain or, on linkers, in order; H or OH if unused. Where a SMILES comes first, the peptide text is derived from it. [ ]: non-standard residue; d: D form. The star is where a group is joined. Benzothienyl2CO(5-CF2PO3H2) = O=C(c1cc2cc(C(F)(F)P(=O)(O)O)ccc2s1)*; βAla(N-(4-Br-phenyl)) = O=C(CCN(c1ccc(Br)cc1)[*:1])[*:2]; NHBn(4-(4-Me-thiazol-5-yl)) = Cc1ncsc1-c1ccc(CN*)cc1; Hyp = O=C(O)[C@@H]1C[C@@H](O)CN1; Tle = CC(C)(C)[C@H](N)C(=O)O; Ahx = NCCCCCC(=O)O",
  "data": [
    {"smiles": "CC(C)(C)[C@H](NC(=O)c1cc2cc(C(F)(F)P(=O)(O)O)ccc2s1)C(=O)N1CCN(C(=O)CCCC#Cc2ccc3c(c2)CN(C2CCC(=O)NC2=O)C3=O)C[C@H]1C(=O)N1CCO[C@H](c2ccccc2)C1", "note": "(stereo partly drawn) [Compound 597, ((2-(((2S)-1-((2S)-4-(6-(2-(2,6-dioxopiperidin-3-yl)-1-oxoisoindolin-5-yl)hex-5-ynoyl)-2-((R)-2-phenylmorpholine-4-carbonyl)piperazin-1-yl)-3,3-dimethyl-1-oxobutan-2-yl)carbamoyl)benzo[b]thiophen-5-yl)difluoromethyl)phosphonic acid]", "values": [
      {"measurement": "DC50", "setting": "MOLM-16 cells, numeric bound, read-out: DC50 S6 MOLM-16", "value": "> 0.3", "unit": "µM"}
    ]},
    {"smiles": "CC(C)(C)[C@H](NC(=O)c1cc2cc(C(F)(F)P(=O)(O)O)ccc2s1)C(=O)N1Cc2cc(OCC(=O)NCCCC#Cc3ccc4c(c3)C(=O)N(C3CCC(=O)NC3=O)C4=O)ccc2C[C@H]1C(=O)N1CCO[C@H](c2ccccc2)C1", "note": "(stereo partly drawn) [Compound 540, ((2-(((2S)-1-((3S)-7-(2-((5-(2-(2,6-dioxopiperidin-3-yl)-1,3-dioxoisoindolin-5-yl)pent-4-yn-1-yl)amino)-2-oxoethoxy)-3-((R)-2-phenylmorpholine-4-carbonyl)-3,4-dihydroisoquinolin-2(1H)-yl)-3,3-dimethyl-1-oxobutan-2-yl)carbamoyl)benzo[b]thiophen-5-yl)difluoromethyl)phosphonic acid]", "values": [
      {"measurement": "DC50", "setting": "[1]", "value": "> 10", "unit": "µM"}
    ]},
    {"smiles": "CC(C)(C)[C@H](NC(=O)c1cc2cc(C(F)(F)P(=O)(O)O)ccc2s1)C(=O)N1C[C@@H](OCC(=O)NCCCCCCCCC#Cc2cccc3c2C(=O)N(C2CCC(=O)NC2=O)C3=O)C[C@H]1C(=O)N1CCC[C@H](c2ccccc2)C1", "note": "(stereo partly drawn) [Compound 503, ((2-(((2S)-1-((2S,4S)-4-(2-((10-(2-(2,6-dioxopiperidin-3-yl)-1,3-dioxoisoindolin-4-yl)dec-9-yn-1-yl)amino)-2-oxoethoxy)-2-((R)-3-phenylpiperidine-1-carbonyl)pyrrolidin-1-yl)-3,3-dimethyl-1-oxobutan-2-yl)carbamoyl)benzo[b]thiophen-5-yl)difluoromethyl)phosphonic acid]", "values": [
      {"measurement": "DC50", "setting": "[1]", "value": "> 10", "unit": "µM"}
    ]},
    {"smiles": "CC(C)(C)[C@H](NC(=O)c1cc2cc(C(F)(F)P(=O)(O)O)ccc2s1)C(=O)N1CCN(C(=O)CC(=O)NCCCC#Cc2ccc3c(c2)C(=O)N(C2CCC(=O)NC2=O)C3=O)C[C@H]1C(=O)N1CCO[C@H](c2ccccc2)C1", "note": "(stereo partly drawn) [Compound 512, ((2-(((25)-1-((2S)-4-(3-((5-(2-(2,6-dioxopiperidin-3-yl)-1,3-dioxoisoindolin-5-yl)pent-4-yn-1-yl)amino)-3-oxopropanoyl)-2-((R)-2-phenylmorpholine-4-carbonyl)piperazin-1-yl)-3,3-dimethyl-1-oxobutan-2-yl)carbamoyl)benzo[b]thiophen-5-yl)difluoromethyl)phosphonic acid]", "values": [
      {"measurement": "DC50", "setting": "[1]", "value": "0.1 to 1", "unit": "µM"}
    ]},
    {"smiles": "CC(C)(C)[C@H](NC(=O)c1cc2cc(C(F)(F)P(=O)(O)O)ccc2s1)C(=O)N1C[C@@H](OCC(=O)NCCCC#Cc2ccc3c(c2)C(=O)N(C2CCC(=O)NC2=O)C3=O)C[C@H]1C(=O)N1CCO[C@H](c2ccccc2)C1", "note": "(stereo partly drawn) [Compound 484, ((2-(((2S)-1-((2S,4S)-4-(2-((5-(2-(2,6-dioxopiperidin-3-yl)-1,3-dioxoisoindolin-5-yl)pent-4-yn-1-yl)amino)-2-oxoethoxy)-2-((R)-2-phenylmorpholine-4-carbonyl)pyrrolidin-1-yl)-3,3-dimethyl-1-oxobutan-2-yl)carbamoyl)benzo[b]thiophen-5-yl)difluoromethyl)phosphonic acid]", "values": [
      {"measurement": "DC50", "setting": "[1]", "value": "1 to 10", "unit": "µM"}
    ]},
    {"smiles": "Cc1cc([C@H](C(=O)N2C[C@H](O)C[C@H]2C(=O)N[C@@H](CC(=O)NCCOCCOCCOCCNC(=O)CCN(C(=O)[C@@H]2CCCN2C(=O)[C@@H](NC(=O)c2cc3cc(C(F)(F)P(=O)(O)O)ccc3s2)C(C)(C)C)c2ccc(Br)cc2)c2ccc(-c3scnc3C)cc2)C(C)C)on1", "note": "[Compound 409, ((2-(((S)-1-((S)-2-((4-bromophenyl)((S)-1-((2S,4R)-4-hydroxy-1-((R)-3-methyl-2-(3-methylisoxazol-5-yl)butanoyl)pyrrolidin-2-yl)-3-(4-(4-methylthiazol-5-yl)phenyl)-1,5,19-trioxo-9,12,15-trioxa-2,6,18-triazahenicosan-21-yl)carbamoyl)pyrrolidin-1-yl)-3,3-dimethyl-1-oxobutan-2-yl)carbamoyl)benzo[b]thiophen-5-yl)difluoromethyl)phosphonic acid]", "values": [
      {"measurement": "DC50", "setting": "MB231 cells, read-out: DC50 S6 MB231", "value": "> 10", "unit": "µM"}
    ]},
    {"smiles": "CC(C)(C)[C@H](NC(=O)c1cc2cc(C(F)(F)P(=O)(O)O)ccc2s1)C(=O)N1CCN(C(=O)CC(=O)NCCCC#Cc2cccc3c2C(=O)N(C2CCC(=O)NC2=O)C3=O)C[C@H]1C(=O)N1CCC[C@H](c2ccccc2)C1", "note": "(stereo partly drawn) [Compound 525, ((2-(((2S)-1-((2S)-4-(3-((5-(2-(2,6-dioxopiperidin-3-yl)-1,3-dioxoisoindolin-4-yl)pent-4-yn-1-yl)amino)-3-oxopropanoyl)-2-((R)-3-phenylpiperidine-1-carbonyl)piperazin-1-yl)-3,3-dimethyl-1-oxobutan-2-yl)carbamoyl)benzo[b]thiophen-5-yl)difluoromethyl)phosphonic acid]", "values": [
      {"measurement": "DC50", "setting": "[1]", "value": "> 10", "unit": "µM"}
    ]},
    {"smiles": "CC(C)(C)[C@H](NC(=O)c1cc2cc(C(F)(F)P(=O)(O)O)ccc2s1)C(=O)N1Cc2cc(OCC(=O)NCCCCCC#Cc3ccc4c(c3)C(=O)N(C3CCC(=O)NC3=O)C4=O)ccc2C[C@H]1C(=O)N1CCO[C@H](c2ccccc2)C1", "note": "(stereo partly drawn) [Compound 544, ((2-(((2S)-1-((3S)-7-(2-((7-(2-(2,6-dioxopiperidin-3-yl)-1,3-dioxoisoindolin-5-yl)hept-6-yn-1-yl)amino)-2-oxoethoxy)-3-((R)-2-phenylmorpholine-4-carbonyl)-3,4-dihydroisoquinolin-2(1H)-yl)-3,3-dimethyl-1-oxobutan-2-yl)carbamoyl)benzo[b]thiophen-5-yl)difluoromethyl)phosphonic acid]", "values": [
      {"measurement": "DC50", "setting": "[1]", "value": "> 10", "unit": "µM"}
    ]},
    {"smiles": "Cc1ncsc1-c1ccc(CNC(=O)[C@@H]2C[C@@H](O)CN2C(=O)[C@@H](NC(=O)CCCCCNC(=O)CCN(C(=O)[C@@H]2CCCN2C(=O)[C@@H](NC(=O)c2cc3cc(C(F)(F)P(=O)(O)O)ccc3s2)C(C)(C)C)c2ccc(Br)cc2)C(C)(C)C)cc1", "note": "[Compound 400] ({Benzothienyl2CO(5-CF2PO3H2)}-[Tle]P[βAla(N-(4-Br-phenyl))][Ahx][Tle][Hyp]-{NHBn(4-(4-Me-thiazol-5-yl))})", "values": [
      {"measurement": "DC50", "setting": "read-out: DC50 S6 MB231, MB231 cells", "value": "> 10", "unit": "µM"}
    ]},
    {"smiles": "Cc1ncsc1-c1ccc([C@H](CC(=O)NCCCCCCCCC(=O)N[C@H]2C[C@@H](C(=O)N3CCO[C@H](c4ccccc4)C3)N(C(=O)[C@@H](NC(=O)c3cc4cc(C(F)(F)P(=O)(O)O)ccc4s3)C(C)(C)C)C2)NC(=O)[C@@H]2C[C@@H](O)CN2C(=O)[C@@H](NC(=O)C2(F)CC2)C(C)(C)C)cc1", "note": "[Compound 571, (difluoro(2-(((S)-1-((2S,4S)-4-(9-((S)-3-((2S,4R)-1-((S)-2-(1-fluorocyclopropane-1-carboxamido)-3,3-dimethylbutanoyl)-4-hydroxypyrrolidine-2-carboxamido)-3-(4-(4-methylthiazol-5-yl)phenyl)propanamido)nonanamido)-2-((R)-2-phenylmorpholine-4-carbonyl)pyrrolidin-1-yl)-3,3-dimethyl-1-oxobutan-2-yl)carbamoyl)benzo[b]thiophen-5-yl)methyl)phosphonic acid]", "values": [
      {"measurement": "DC50", "setting": "[1]", "value": "> 10", "unit": "µM"}
    ]}
  ]
}
